Measured values published in patent publication US8664382B2, “Antibacterial compositions comprising metal phthalocyanine analogues” (Molteni Therapeutics S.r.l., priority 2002, dated 2014).

How the values were obtained:
E. coli ATCC 25922 = assay: Photoinactivation (biocidal activity) of E. coli cell suspension after red light irradiation; format: cell-based; conditions: for concentration able to sterilize completely the cell suspension: in combination with EDTA 0.5 mM, 100 mW/cm2 red light (FIG. 2, FIG. 5)
Description: These microorganisms were used in the experiments in a stationary phase of growth.
(§1) The experimental protocol was the following:
(§2) The cell suspensions were diluted in an appropriate medium. Addition of an aliquot of stock solution of the composition to be tested to the cell suspension up to the intended final concentrations. Incubation in dark at 37° C. for 5 minutes. Irradiation (650≦λ≦850 nm; 50÷100 mW/cm2; 1÷10 minutes) of cell suspension for each dilution of the photosensitising composition.

[1] = tested on: Pseudomonas aeruginosa PAO-1; assay: Photoinactivation (biocidal activity) of Pseudomonas aeruginosa cell suspension after red light irradiation; format: cell-based
Description: The usefulness of the pharmaceutical compositions of the present invention has been evaluated through their activity against the Gram negative micro-organisms Pseudomonas aeruginosa PAO-1 and E. coli ATCC 25922. These microorganisms were used in the experiments in a stationary phase of growth.
as §1, §2

Substance	concentration able to sterilize completely the cell suspension (E. coli ATCC 25922; 5 min incubation) [µM]	photosensitizer concentration necessary to sterilize the cell suspension (E. coli ATCC 25922; without EDTA, 5 min incubation, 100 mW/cm2 red light (FIG. 5a)) [µM]	reduction of the initial population (E. coli ATCC 25922; compound alone, no chelating agent, 5 min incubation, irradiation 100 mW/cm2 red light (FIG. 1)) [log]	complete sterilization of the cell suspension (E. coli ATCC 25922; compound alone, no chelating agent, irradiation 100 mW/cm2 red light (FIG. 1))	concentration up to which not active (photoinactivation) ([1]; compound alone, no chelating agent, 100 mW/cm2 red light (FIG. 3)) [µM]	reduction of the population ([1]; with EDTA 0.5 mM, 1 μM concentration, 100 mW/cm2 red light (FIG. 3a)) [log]	concentration able to sterilize the cell suspension ([1]; with EDTA 0.5 mM, 100 mW/cm2 red light (FIG. 3a)) [µM]
{2(3),9(10),16(17),23(24)-tetra[1,3-bis-(trimethylammonium)propyl-2-oxy]zinc(II) phthalocyanine}octaiodide [compound 2]	1	20					
{2,3,9,10,16,17,23,24-octa[3-(N,N,N-trimethylammonium)phenoxy]zinc(II) phthalocyanine}octaiodide [compound 1]	1		4	cannot be obtained	> 40	5	5
